Measurements from US20230048888A1, “USE OF TRIAZOLOTRIAZINE DERIVATIVE IN TREATMENT OF DISEASES” (ZHEJIANG VIMGREEN PHARMACEUTICALS, LTD., priority 2019, published 2023).

Legend:
[1] = biological target: T1, Human adenosine ADORA3 receptor membrane protein (Homo sapiens, UniProt P0DMS8); test: Radioisotope ligand competitive binding, ADORA3 ([3H] HEMADO); settings: ADORA3 (IC50, nM, n = 3), binding test
T1 construct: purchased PerkinElmer ES-012-M400UA
T1 sequence (P0DMS8 1-318): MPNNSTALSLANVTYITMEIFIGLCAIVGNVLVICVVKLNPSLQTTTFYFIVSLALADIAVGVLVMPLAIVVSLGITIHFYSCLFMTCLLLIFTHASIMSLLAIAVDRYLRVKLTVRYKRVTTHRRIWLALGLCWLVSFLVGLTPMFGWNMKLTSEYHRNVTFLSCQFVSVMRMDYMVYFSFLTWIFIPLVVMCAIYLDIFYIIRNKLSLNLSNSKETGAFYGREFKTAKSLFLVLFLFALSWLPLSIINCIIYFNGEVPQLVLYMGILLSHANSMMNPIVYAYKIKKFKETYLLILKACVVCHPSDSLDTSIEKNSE
Description: ADORA3: 25 mM HEPES pH 7.4, 10 mM MgCl2, 1 mM CaCl2, 0.5% BSA
4) Preparation of compounds: the test compounds and the reference compounds were separately diluted with 100% DMSO. For the test compounds, the initial concentration was 10 μM, with double secondary wells; 4-fold gradient dilution was carried out at 10 points; and the final working concentration was 0.038 nM-10 μM (for the second and third detection of the test compound against an ADORA2A target, the initial concentration was 2 μM, with double secondary wells, 4-fold gradient dilution was carried out at 10 points, and the final working concentration was 0.0076 nM-2 μM). For the ADORA1, ADORA2A, ADORA2B, and ADORA3 reference compounds, the initial concentration was 1 μM, with double secondary wells, 4-fold gradient dilution was carried out at 10 points, and the final working concentration was 0.0038 nM-1 μM.
1 μL of a sample to be tested and 1 μL of a reference compound were added to a 96-well plate in sequence. […] 100 μL of cells and 100 μL of isotopes were added to all experimental wells. The 96-well plate was sealed; ADORA1, ADORA2B, and ADORA3 were incubated for 1 hour on a shaker (300 rpm) at room temperature (22° C.); and ADORA2A was incubated for 2 hours on a shaker (300 rpm) at room temperature (22° C.). At the same time, a GF/C filter plate was soaked with ADORA1, ADORA2A, ADORA2B, and ADORA3 by using 0.3% PEI for at least 30 minutes at room temperature, at 50 μL/well. After the incubation was completed, the incubated reaction system was collected onto the GF/C filter plate with a Harvester, washed 4 times and then dried for 0.5 hours in an oven at 50° C. The bottom of the dried GF/C filter plate was sealed with a film, 50 μL of scintillation solution was added to each well, which was then sealed with a Top-seal-A film. With Microbeta readings, the data was analyzed by GraphPad Prism 5.0.
% Inhibition=100×(1−(Sample_raw value−Low control_Average)/(High control_Average−Low control_Average))
The data was fitted with “log(inhibitor) vs response-variable slope” in GraphPad Prism 5.0 to obtain IC50.

[2] = biological target: T2, human ADORA3 (Homo sapiens, UniProt P0DMS8); test: Calcium flow test (FLIPR), ADORA3 stably transfected CHO; format: cell-based; settings: Table 9
T2 construct: host or cells: CHO
T2 sequence (P0DMS8 1-318): T1 sequence (P0DMS8 1-318)
Description: In this experiment, stably transfected cell lines over-expressing adenosine receptor coupled to human Gq were used, and the antagonistic function of Compound 22 was evaluated by testing the changes in intracellular calcium ion concentration. The binding of the A2AR agonist to A2AR could activate a downstream pathway to increase the intracellular calcium ion concentration. The antagonist would competitively occupy the binding site where the agonist binds to A2AR, thereby interrupting the intracellular signal transduction and leading to a change in the intracellular calcium ion concentration. By detecting the strength of the intracellular calcium ion signal, the antagonistic activities of the compound on human ADORA1, ADORA2A, ADORA2B and ADORA3 adenosine receptors were determined. […]
7) The FLIPR instrument software was operated; following a set program, 10 μL of experimental buffer salt solution was added to the cell plate; and fluorescence signals were read. Then, 10 μL of the reference compound of agonist at a predetermined concentration was added to the cell plate, and the fluorescence signals were read. After reading, data was exported by means of “Max-Min” and “Read 91 to Maximum allowed” in the software, the EC80 of each cell line was calculated, and an agonist with a concentration of 6×EC80 was prepared.
9) The FLIPR instrument software was operated; following a set program, 10 μL of the test compound and 10 μL of the reference compound were added at a predetermined concentration to the cell plate; and the fluorescence signals were read. Then, 10 μL of the reference compound of agonist at a concentration of 6×EC80 was added to the cell plate, and the fluorescence signal were read. For the antagonist detection of the compound, data was exported by means of “Max-Min” and “Read 1 to 90” in the software. […]

IC50 ([1]; Table 10 (IC50)): 18 ± 11.4 nM
IC50 ([1]; Table 11): 14.5 nM
IC50 [2]: 32.1 ± 4.52 nM
Compound: Nc1nc2ccc(Cl)cc2c2nc(-c3ccco3)nn12 [CGS-15943, reference compound]
